Where a name gives a salt, the structure may show the parent alone.
The compounds below were run on C57BL/6 mice (assay: animal or person). Conditions: Mus musculus, sc, 0.5 h, s.c. administration, 30 min, 55° C. water, read-out: ED50 (mg/kg) at 30 min on C57BL/6 mice in Warm-water Tail-flick Test.
Type: in vivo

For Fc1ccc(-n2cccn2)c(CN2CCC(CCc3ccccc3)(C3CCCO3)C2)c1 (centres unmarked) [Compound 199, 1-(4-fluoro-2-((3-phenethyl-3-(tetrahydrofuran-2-yl)pyrrolidin-1-yl)methyl)phenyl)-1H-pyrazole], which ED50 is on record?
The ED50 was > 10 mg/kg.

How did the ED50 turn out when CCOC[C@@]1(CCc2ccsc2)CCN(Cc2ccc(C)nc2C)C1 [Compound 336] was run?
The ED50 was < 10 mg/kg.

With CCOCC1(CCc2ccccc2)CCN(Cc2ccc(-n3nccn3)cc2)CC1 [Compound 158] as the compound, how does the ED50 read?
Its ED50 is > 10 mg/kg.

CCOCC1(CCc2ccccc2)CCN(Cc2ccc(NC(=O)CC)cc2)CC1 [Compound 81, N-(4-((4-(ethoxymethyl)-4-phenethylpiperidin-1-yl)methyl)phenyl)pro-pionamide] was tested. Which ED50 did it give?
Its ED50 is > 10 mg/kg.

For c1ccc(CCC2(C3CCCO3)CCN(Cc3ccncc3)C2)cc1 (centres unmarked) [Compound 236, 4-((3-phenethyl-3-(tetrahydrofuran-2-yl)pyrrolidin-1-yl)methyl)pyridine], which ED50 is on record?
Its ED50 is > 10 mg/kg.

How did the ED50 turn out when CCOC[C@@]1(COc2ccccc2)CCN(Cc2cccnc2)C1.Cl [Compound 444, (R)-3-((3-(ethoxymethyl)-3-(phenoxy-methyl)pyrrolidin-1-yl)methyl)pyridine HCl] was run?
Its ED50 is < 10 mg/kg.

For CCOC[C@@]1(CCc2nc3ncncc3[nH]2)CCN(C(C)(C)c2ccc(C)nc2)C1 [Compound 456, (S)-8-(2-(3-(ethoxymethyl)-1-(2-(6-methylpyridin-3-yl)propan-2-yl)pyrrolidin-3-yl)ethyl)-7H-purine citrate], which ED50 is on record?
The ED50 was < 10 mg/kg.

Which ED50 does the source give for C[C@H](O)[C@]1(CCc2cccs2)CCN(Cc2cccnc2)C1 (single isomer, unassigned) [Compound 422] here?
The ED50 was < 10 mg/kg.

Which ED50 does the source give for CC(=O)Nc1ccc(CN2CCC(CCc3ccccc3)(COCc3ccccc3)C2)cc1 (centres unmarked) [Compound 239, N-(4-((3-(benzyloxymethyl)-3-phenethylpyrrolidin-1-yl)methyl)phenyl)acetamide] here?
The ED50 was > 10 mg/kg.

How did the ED50 turn out when CC(=O)NCCCCN1CCC(CCc2ccccc2)(c2ccccn2)CC1 [Compound 35, N-(4-(4-phenethyl-4-(pyridin-2-yl)piperidin-1-yl)butyl)acetamide] was run?
Its ED50 is > 10 mg/kg.

With CCOCC1(CCc2ccc(C)s2)CCN(Cc2cnn(C)c2)CC1 [Compound 266, 4-(ethoxymethyl)-1-((1-methyl-1H-pyrazol-4-yl)methyl)-4-(2-(5-methylthiophen-2-yl)ethyl)piperidine] as the compound, how does the ED50 read?
The ED50 was > 10 mg/kg.

Which ED50 does the source give for CC(=O)Nc1ccc(CN2CCC(CCc3ccccc3)(C3CCO3)C2)cc1 (centres unmarked) [Compound 120, N-(4-((3-(oxetan-2-yl)-3-phenethylpyrrolidin-1-yl)methyl)phenyl)acetamide] here?
Its ED50 is < 10 mg/kg.

With COC(=O)C1(CCc2ccccc2)CN(Cc2ccc(NC(C)=O)cc2)C1.Cl [Compound 27, methyl 1-(4-acetamidobenzyl)-3-phenethylazetidine-3-carboxylate HCl] as the compound, how does the ED50 read?
Its ED50 is > 10 mg/kg.

For C1=CC(C2(CCc3cccs3)CCN(Cc3cccnc3)CC2)OC1 (centres unmarked) [Compound 293, 3-((4-(2,5-dihydrofuran-2-yl)-4-(2-(thiophen-2-yl)ethyl)piperidin-1-yl)methyl)pyridine], which ED50 is on record?
Its ED50 is > 10 mg/kg.

For c1ccc(CCC2(c3ccccn3)CCN(Cc3ccccc3)CC2)cc1 [Compound 26, 2-(1-benzyl-4-phenethylpiperidin-4-yl)pyridine], which ED50 is on record?
Its ED50 is > 10 mg/kg.

With CC(=O)Nc1ccc(CN2CCC(CCc3ccccc3)(c3ccncc3)CC2)cc1 [Compound 7] as the compound, how does the ED50 read?
The ED50 was > 10 mg/kg.

COc1ccc(C2(/C=C/c3ccccc3)CCN(Cc3ccc(NC(C)=O)cc3)CC2)nc1 [Compound 62, (E)-N-(4-((4-(5-methoxypyridin-2-yl)-4-styrylpiperidin-1-yl)methyl)phenyl)acetamide] was tested. Which ED50 did it give?
Its ED50 is > 10 mg/kg.

With CCOCC1(CCc2ccccc2)CCN(Cc2ccc(-c3nnco3)cc2)CC1 [Compound 137, 2-(4-((4-(ethoxymethyl)-4-phenethylpiperidin-1-yl)methyl)phenyl)-1,3,4-oxadiazole] as the compound, how does the ED50 read?
Its ED50 is > 10 mg/kg.

How did the ED50 turn out when Nc1ccc(CN2CCC(CCc3ccccc3)(c3ccccn3)CC2)cc1 [Compound 41, 4-((4-phenethyl-4-(pyridin-2-yl)piperidin-1-yl)methyl)aniline] was run?
The ED50 was > 10 mg/kg.

With CC(=O)Nc1ccc(CN2CCC(CCc3ccccc3)(c3cccc(F)n3)CC2)cc1 [Compound 37, N-(4-((4-(6-fluoropyridin-2-yl)-4-phenethylpiperidin-1-yl)methyl)phenyl)acetamide] as the compound, how does the ED50 read?
The ED50 was > 10 mg/kg.

CCOC[C@@]1(CCc2cccs2)CCN(C(C)c2cnn(C)c2C)C1 (stereo partly drawn) [Compound 378, 4-(1-((S)-3-(ethoxymethyl)-3-(2-(thiophen-2-yl)ethyl)pyrrolidin-1-yl)ethyl)-1,5-dimethyl-1H-pyrazole] was tested. Which ED50 did it give?
Its ED50 is < 10 mg/kg.

Which ED50 does the source give for Cc1ccc(CN2CC[C@@](CCc3ccsc3)(C3CCCO3)C2)cn1.Cl (stereo partly drawn) [Compound 391, 2-methyl-5-(((3R)-3-(tetrahydrofuran-2-yl)-3-(2-(thiophen-3-yl)ethyl)pyrrolidin-1-yl)methyl)pyridine HCl] here?
The ED50 was < 10 mg/kg.

With CCOCC1(CCc2ccccc2)CCN(Cc2ccc(CNC(C)=O)cc2)CC1.Cl [Compound 169, N-(4-((4-(ethoxymethyl)-4-phenethylpiperidin-1-yl)methyl)benzyl)acetamide HCl] as the compound, how does the ED50 read?
The ED50 was > 10 mg/kg.

With Cc1ccc(N(C)N2CCC(CCc3ccccc3)(c3ccccn3)CC2)c(C)n1 [Compound 339, N,2,6-trimethyl-N-(4-phenethyl-4-(pyridin-2-yl)piperidin-1-yl)pyridin-3-amine] as the compound, how does the ED50 read?
The ED50 was > 10 mg/kg.

How did the ED50 turn out when CCOCC1(CCc2ccccc2)CCN(Cc2ccccc2-c2ccco2)C1 (centres unmarked) [Compound 317] was run?
Its ED50 is > 10 mg/kg.

How did the ED50 turn out when CCOCC1(CCc2ccsc2)CCN(Cc2ccc(C)nc2)C1 (stereo not drawn) [Compound 277, 5-((3-(ethoxymethyl)-3-(2-(thiophen-3-yl)ethyl)pyrrolidin-l-yl)methyl)-2-methylpyridine] was run?
The ED50 was < 10 mg/kg.

For CCOCC1(CCc2csc3ccccc23)CCN(Cc2cccnc2)C1 (centres unmarked) [Compound 309, 3-((3-(2-(benzo[b]thiophen-3-yl)ethyl)-3-(ethoxy-methyl)pyrrolidin-1-yl)methyl)pyridine], which ED50 is on record?
Its ED50 is > 10 mg/kg.

CCOC[C@@]1(CCc2ccccc2)CCN(Cc2ccc(NC(C)=O)cc2)C1 [Compound 204, (S)-N-(4-((3-(ethoxymethyl)-3-phenethylpyrrolidin-1-yl)methyl)phenyl)acetamide] was tested. Which ED50 did it give?
The ED50 was > 10 mg/kg.

With Cc1ccc(C(C)(C)N2CC[C@](CCc3cccs3)([C@@H]3CCC(C)(C)O3)C2)cn1 [Compound 468, 5-(2-((S)-3-((S)-5,5-dimethyltetrahydro-furan-2-yl)-3-(2-(thiophen-2-yl)ethyl)pyrrolidin-1-yl)propan-2-yl)-2-methylpyridine] as the compound, how does the ED50 read?
Its ED50 is < 10 mg/kg.

C1=CC(C2(CCc3ccsc3)CCN(Cc3cccnc3)C2)OC1 (centres unmarked) [Compound 272, 3-((3-(2,5-dihydrofuran-2-yl)-3-(2-(thiophen-yl)ethyl)pyrrolidin-1-yl)methyl)pyridine] was tested. Which ED50 did it give?
The ED50 was < 10 mg/kg.

With CCOC[C@@]1(CCc2cccs2)CCN(Cc2ccc(C)nc2C)C1 [Compound 334, (S)-3-((3-(ethoxymethyl)-3-(2-(thiophen-2-yl)ethyl)pyrrolidin-1-yl)methyl)-2,6-dimethylpyridine] as the compound, how does the ED50 read?
Its ED50 is < 10 mg/kg.

For Cn1cncc1CN1CCC(CCc2ccccc2)(C2CCCO2)C1 (centres unmarked) [Compound 221, 1-methyl-5-((3-phenethyl-3-(tetrahydrofuran-2-yl)pyrrolidin-1-yl)methyl)-1H-imidazole], which ED50 is on record?
The ED50 was > 10 mg/kg.

How did the ED50 turn out when CCOC[C@@]1(CCc2ccnc(OC)c2)CCN(C(C)(C)c2ccc(C)nc2)C1.Cl [Compound 361, (S)-4-(2-(3-(ethoxymethyl)-1-(2-(6-methylpyridin-3-yl)propan-2-yl)pyrrolidin-3-yl)ethyl)-2-methoxypyridine HCl] was run?
The ED50 was < 10 mg/kg.

How did the ED50 turn out when c1ccc(CCC2(C3CCCO3)CCN(CC3CCCO3)C2)cc1 (centres unmarked) [Compound 229, 3-phenethyl-3-(tetrahydrofuran-2-yl)-1-((tetrahydrofuran-2-yl)methyl)pyrrolidine] was run?
The ED50 was > 10 mg/kg.

For CCOCC1(CCc2ccccc2)CCN(Cc2ccc(C#N)cc2)CC1 [Compound 151, 4-((4-(ethoxymethyl)-4-phenethylpiperidin-1-yl)methyl)benzonitrile], which ED50 is on record?
Its ED50 is > 10 mg/kg.

For CCOC[C@@]1(CCc2cc[nH]c(=O)c2)CCN(C(C)(C)c2ccc(C)nc2)C1.Cl [Compound 367, (S)-4-(2-(3-(ethoxymethyl)-1-(2-(6-methylpyridin-3-yl)propan-2-yl)pyrrolidin-3-yl)ethyl)pyridin-2(1H)-one HCl], which ED50 is on record?
Its ED50 is < 10 mg/kg.

CC(=O)Nc1ccc(CN2CC[C@](CCc3ccccc3)([C@H]3C=CCO3)C2)cc1 (single isomer, unassigned) [Compound 261] was tested. Which ED50 did it give?
The ED50 was > 10 mg/kg.

Which ED50 does the source give for CCOCC1(CCc2ccccc2)CCN(Cc2ccc(-c3nc(C)no3)cc2)CC1.Cl [Compound 135, 5-(4-((4-(ethoxymethyl)-4-phenethylpiperidin-1-yl)methyl)pheny)-3-methyl-1,2,4-oxadiazole HCl] here?
The ED50 was > 10 mg/kg.

With CC(C)(c1cccnc1)N1CCC(CCc2ccccc2)(c2ccccn2)CC1 [Compound 433, 2-(4-phenethyl-1-(2-(pyridin-3-yl)propan-2-yl)piperidin-4-yl)pyridine] as the compound, how does the ED50 read?
Its ED50 is < 10 mg/kg.

How did the ED50 turn out when NC(=O)Nc1ccc(CN2CCC(CCc3ccccc3)(c3ccccn3)CC2)cc1 [Compound 23, 1-(4-((4-phenethyl-4-(pyridin-2-yl)piperidin-1-yl)methyl)phenyl)urea] was run?
The ED50 was > 10 mg/kg.

CCOCC1(CCc2cccs2)CCN(Cc2cccnc2)C1 (centres unmarked) [Compound 251, 3-((3-(ethoxymethyl)-3-(2-(thiophen-2-yl)ethyl)pyrrolidin-1-yl)methyl)pyridine] was tested. Which ED50 did it give?
Its ED50 is < 10 mg/kg.

How did the ED50 turn out when CC(=O)Nc1ccc(CN2CCC(CCc3ccccc3)(C3CCCCO3)C2)cc1 (centres unmarked) [Compound 208, N-(4-((3-phenethyl-3-(tetrahydro-2H-pyran-2-yl)pyrrolidin-1-yl)methyl)phenyl)acetamide] was run?
Its ED50 is < 10 mg/kg.

How did the ED50 turn out when C=CCCC1(COCC)CCN(Cc2ccc(NC(C)=O)cc2)CC1 [Compound 100, N-(4-((4-(but-3-enyl)-4-(ethoxymethyl)piperidin-1-yl)methyl)phenyl)acetamide] was run?
The ED50 was > 10 mg/kg.

How did the ED50 turn out when CCOC[C@@]1(CCc2nccc(=O)[nH]2)CCN(C(C)(C)c2ccc(C)nc2)C1 [Compound 375, (S)-2-(2-(3-(ethoxymethyl)-1-(2-(6-methylpyridin-3-yl)propan-2-yl)pyrrolidin-3-yl)ethyl)pyrimidin-4(3H)-one] was run?
Its ED50 is < 10 mg/kg.

From patent US11584765B2 (priority 2017, dated 2023)
